Assay results published in patent US4866083A, “2-t-butyl-3 alkyl-5-(m-hydroxyphenyl)-1,3-oxazolidines having mydriatic effect” (University of Iowa Research Foundation, priority 1987, dated 1989).

Assays:
[1] = Hydrolysis in buffered aqueous solution at 35° C.; assay type: physicochemical; settings: pH's between 1-7.5
Description: A series of experiments were conducted at 35° C. to determine the apparent first order hydrolysis rate constant for phenylephrine oxazolidine at […]. The progress of hydrolysis of the prodrug was followed by measuring the production of pivaldehyde subsequently trapped with thiosemicarbazide (pH<4) or semicarbazide (pH 4-7.5). The resulting formation of the carbazone derivative was followed using Uv spectroscopy at 235 and 265 nm (the spectroscopy was a 8450A UV/VIS Hewlett-Packard, Chicago, Ill.). The prodrug was dissolved in either pH 1, 2, 3, 4, 5, 6, 7 or 7.5 buffered aqueous solutions. The buffers used were hydrochloric acid, formate, acetate and phosphate solutions. The carbonyl trapping reagent was included in the buffer solutions at a concentration of 3.1×10(-3) M. The initial concentration of oxazolidine prodrug was about 1.8×10(-4) M. A volume of 3 ml was used for the reaction which was monitored directly in the absorbance cell. […] The concentration of carbazone was calculated by referring to a standard curve.

[2] = Distribution coefficient (log DC); assay type: physicochemical; settings: read-out: log DC (Dist. Coeff.)
[3] = Stability in aqueous solutions; assay type: physicochemical
rabbit eye = test: Mydriatic experiments, pupil diameter in the rabbit eye; assay type: in vivo, New Zealand Rabbit
Description: The right eye of a normal adult New Zealand Rabbit (3-4 months) was used to measure mydriasis. A flood of diffuse light was placed at a fixed distance from the rabbit eye so that the initial pupil diameter prior to administering eye drops was about 3 mm. Changes in pupil diameter were measured from photographs taken with a 35 mm single lens reflex camera equipped with a close-up lens. Pupil diameters were measured at time 0 through about 5 hours. A dosing volume of 10 μl was administered to the right eye of a group of eight rabbits. A period of at least three days was allowed between instillations of each formulation.

[4] = topical ocular; some individuals; cited from earlier work

half-life [1] [min]	logD [2]	SMILES	stability in aqueous solutions [3]	potency relative to the aqueous solution of phenylephrine HCl (rabbit eye; based upon pupillary diameter, versus 10% viscous preparation of phenylephrine HCl, FIG. 2)	mydriasis compared with phenylephrine HCl (rabbit eye; molar equivalent concentration to 10% oil suspension of phenylephrine HCl, 10 μl to right eye, FIG. 1)	side effects [4]
5 to 12	1.383 ± 0.013	CN1C[C@@H](c2cccc(O)c2)OC1C(C)(C)C (single isomer, unassigned) [phenylephrine oxazolidine, 2-t-butyl-3-methyl-5-(m-hydroxyphenyl)-1,3-oxazolidine]	not particularly stable in aqueous solutions	approximately 10 times	significantly greater mydriasis	
		CNC[C@H](O)c1cccc(O)c1 [phenylephrine, 3-hydroxy-α-[(methylamino)methyl]-benzyl alcohol]				hypertension, syncope, and even in some cases to myocardial infarction, leading to death
